Measurements: the CheMixHub ionic liquid set

Experiment: xn = mol fraction of the nth substance listed

COCCn1cc[n+](C)c1.N#C[S-] + CC1COC(=O)O1
101 kPa
Conditions | electrical conductivity [S/m] | viscosity [mPa·s]
288.15 K, x1 = 0.1022 | 0.963 | 4.19
288.15 K, x1 = 0.2001 | 1.05 | 5.1
288.15 K, x1 = 0.3021 | 0.967 | 7.1
288.15 K, x1 = 0.3996 | 0.843 | 11
288.15 K, x1 = 0.5012 | 0.717 | 15.9
288.15 K, x1 = 0.6015 | 0.586 | 22.3
288.15 K, x1 = 0.7032 | 0.471 | 34.5
288.15 K, x1 = 0.8004 | 0.381 | 50
288.15 K, x1 = 0.9002 | 0.286 | 68
288.15 K, x1 = 1 | 0.223 | 86
293.15 K, x1 = 0.1022 | 1.07 | 3.54
293.15 K, x1 = 0.2001 | 1.23 | 4.31
293.15 K, x1 = 0.3021 | 1.12 | 6.1
293.15 K, x1 = 0.3996 | 0.984 | 9.2
293.15 K, x1 = 0.5012 | 0.84 | 12.7
293.15 K, x1 = 0.6015 | 0.709 | 17.5
293.15 K, x1 = 0.7032 | 0.578 | 26.2
293.15 K, x1 = 0.8004 | 0.48 | 37.8
293.15 K, x1 = 0.9002 | 0.382 | 51
293.15 K, x1 = 1 | 0.315 | 67
298.15 K, x1 = 0.1022 | 1.19 | 3.05
298.15 K, x1 = 0.2001 | 1.4 | 3.71
298.15 K, x1 = 0.3021 | 1.3 | 5.3
298.15 K, x1 = 0.3996 | 1.16 | 7.8
298.15 K, x1 = 0.5012 | 1 | 10.4
298.15 K, x1 = 0.6015 | 0.844 | 14
298.15 K, x1 = 0.7032 | 0.714 | 20.3
298.15 K, x1 = 0.8004 | 0.591 | 29
298.15 K, x1 = 0.9002 | 0.492 | 39.7
298.15 K, x1 = 1 | 0.41 | 53
303.15 K, x1 = 0.1022 | 1.31 | 2.67
303.15 K, x1 = 0.2001 | 1.59 | 3.27
303.15 K, x1 = 0.3021 | 1.49 | 4.67
303.15 K, x1 = 0.3996 | 1.33 | 6.6
303.15 K, x1 = 0.5012 | 1.16 | 8.6
303.15 K, x1 = 0.6015 | 1.01 | 11.3
303.15 K, x1 = 0.7032 | 0.849 | 16.1
303.15 K, x1 = 0.8004 | 0.717 | 22.8
303.15 K, x1 = 0.9002 | 0.602 | 31.3
303.15 K, x1 = 1 | 0.52 | 42.1
308.15 K, x1 = 0.1022 | 1.44 | 2.38
308.15 K, x1 = 0.2001 | 1.79 | 2.91
308.15 K, x1 = 0.3021 | 1.69 | 4.11
308.15 K, x1 = 0.3996 | 1.53 | 5.7
308.15 K, x1 = 0.5012 | 1.34 | 7.2
308.15 K, x1 = 0.6015 | 1.17 | 9.4
308.15 K, x1 = 0.7032 | 1 | 13
308.15 K, x1 = 0.8004 | 0.867 | 18.2
308.15 K, x1 = 0.9002 | 0.749 | 25
308.15 K, x1 = 1 | 0.653 | 34.4
313.15 K, x1 = 0.1022 | 1.58 | 2.14
313.15 K, x1 = 0.2001 | 2 | 2.59
313.15 K, x1 = 0.3021 | 1.91 | 3.65
313.15 K, x1 = 0.3996 | 1.75 | 4.9
313.15 K, x1 = 0.5012 | 1.53 | 6.2
313.15 K, x1 = 0.6015 | 1.36 | 7.9
313.15 K, x1 = 0.7032 | 1.19 | 10.8
313.15 K, x1 = 0.8004 | 1.02 | 14.8
313.15 K, x1 = 0.9002 | 0.893 | 20.5
313.15 K, x1 = 1 | 0.795 | 28.6
318.15 K, x1 = 0.1022 | 1.72 | 1.94
318.15 K, x1 = 0.2001 | 2.21 | 2.36
318.15 K, x1 = 0.3021 | 2.14 | 3.3
318.15 K, x1 = 0.3996 | 1.97 | 4.28
318.15 K, x1 = 0.5012 | 1.75 | 5.3
318.15 K, x1 = 0.6015 | 1.55 | 6.7
318.15 K, x1 = 0.7032 | 1.36 | 9.1
318.15 K, x1 = 0.8004 | 1.2 | 12.3
318.15 K, x1 = 0.9002 | 1.07 | 17.1
318.15 K, x1 = 1 | 0.954 | 23.7
323.15 K, x1 = 0.1022 | 1.86 | 1.78
323.15 K, x1 = 0.2001 | 2.43 | 2.16
323.15 K, x1 = 0.3021 | 2.37 | 2.97
323.15 K, x1 = 0.3996 | 2.19 | 3.77
323.15 K, x1 = 0.5012 | 1.97 | 4.62
323.15 K, x1 = 0.6015 | 1.78 | 5.8
323.15 K, x1 = 0.7032 | 1.57 | 7.7
323.15 K, x1 = 0.8004 | 1.4 | 10.3
323.15 K, x1 = 0.9002 | 1.24 | 14.3
323.15 K, x1 = 1 | 1.12 | 20
328.15 K, x1 = 0.1022 | 2.02 | 1.65
328.15 K, x1 = 0.2001 | 2.67 | 1.99
328.15 K, x1 = 0.3021 | 2.62 | 2.68
328.15 K, x1 = 0.3996 | 2.43 | 3.33
328.15 K, x1 = 0.5012 | 2.21 | 4.05
328.15 K, x1 = 0.6015 | 1.99 | 5
328.15 K, x1 = 0.7032 | 1.78 | 6.6
328.15 K, x1 = 0.8004 | 1.6 | 8.8
328.15 K, x1 = 0.9002 | 1.45 | 12.1
328.15 K, x1 = 1 | 1.32 | 17.2
333.15 K, x1 = 0.1022 | 2.17 | 1.54
333.15 K, x1 = 0.2001 | 2.9 | 1.85
333.15 K, x1 = 0.3021 | 2.88 | 2.42
333.15 K, x1 = 0.3996 | 2.68 | 3
333.15 K, x1 = 0.5012 | 2.45 | 3.57
333.15 K, x1 = 0.6015 | 2.24 | 4.38
333.15 K, x1 = 0.7032 | 2.02 | 5.8
333.15 K, x1 = 0.8004 | 1.83 | 7.5
333.15 K, x1 = 0.9002 | 1.65 | 10.4
333.15 K, x1 = 1 | 1.51 | 14.8

[Cl-].c1ccc(C[P+](c2ccccc2)(c2ccccc2)c2ccccc2)cc1 + OCC(O)CO
101 kPa, x2 = 0.9412
Conditions | electrical conductivity [S/m] | viscosity [mPa·s]
298.1 K | 0.006977 | –
307.07 K | – | 654
322.36 K | – | 238
322.96 K | 0.03314 | –
332.98 K | 0.04535 | –
338.06 K | 0.05407 | –
343.13 K | 0.0593 | –
348.08 K | 0.075 | –

CCCC[NH3+].O=[N+]([O-])[O-] + CC[NH3+].O=[N+]([O-])[O-]
electrical conductivity [S/m], 101 kPa, frequency 0.00293 MHz
Conditions | 303.15 K | 308.15 K | 323.15 K
x2 = 0.25 | – | 0.88 | 1.38
x2 = 0.75 | 1.68 | – | –

101 kPa
Conditions | viscosity [mPa·s]
303.15 K, x2 = 0.75 | 42.1
308.15 K, x2 = 0.25 | 56.1
323.15 K, x2 = 0.25 | 33.7
333.15 K, x2 = 0.25 | 25.2
338.15 K, x2 = 0.25 | 22
338.15 K, x2 = 0.75 | 15.5
343.15 K, x2 = 0.25 | 19.4
353.15 K, x2 = 0.25 | 15.4
353.15 K, x2 = 0.5 | 13.3

CCCC[n+]1ccn(C)c1.[Br-] + CCCCOCCO
viscosity [mPa·s], 100 kPa
Conditions | x1 = 0.1007 | x1 = 0.2003 | x1 = 0.3007 | x1 = 0.4003 | x1 = 0.5 | x1 = 0.5992 | x1 = 0.7002 | x1 = 0.8003 | x1 = 0.8978 | x1 = 1
298.15 K | 18.4 | 56.8 | 108 | 155 | 201 | 263 | 374 | 577 | 920 | 1451
303.15 K | 12.2 | 32.5 | 59.6 | 86.7 | 115 | 152 | 212 | 320 | 511 | 837
308.15 K | 9.08 | 22.8 | 40.7 | 59.4 | 77 | 98 | 132 | 187 | 297 | 506
313.15 K | 6.85 | 16.2 | 29.1 | 41.7 | 54.2 | 67.6 | 87.9 | 122 | 188 | 330

CCCC[n+]1ccc(C)cc1.O=S(=O)([N-]S(=O)(=O)C(F)(F)F)C(F)(F)F + CCOS(=O)(=O)[O-].CC[n+]1ccn(C)c1
100 kPa
Conditions | viscosity [mPa·s]
293.15 K, x2 = 0.1177 | 86.8
293.15 K, x2 = 0.3341 | 116.8
293.15 K, x2 = 0.558 | 145
303.15 K, x2 = 0.558 | 86.5
303.15 K, x2 = 0.7776 | 89.6
313.15 K, x2 = 0.3341 | 46.2
313.15 K, x2 = 0.6663 | 58.1
313.15 K, x2 = 0.9487 | 53.1
323.15 K, x2 = 0.6663 | 39.8
323.15 K, x2 = 0.7776 | 39.6
333.15 K, x2 = 0.1177 | 18.6
333.15 K, x2 = 0.3341 | 23.1
333.15 K, x2 = 0.558 | 27.4
333.15 K, x2 = 0.6663 | 28.5
343.15 K, x2 = 0.0475 | 13
343.15 K, x2 = 0.1177 | 14
343.15 K, x2 = 0.6663 | 21
343.15 K, x2 = 0.7776 | 21
343.15 K, x2 = 0.9487 | 19.9
353.15 K, x2 = 0.0475 | 10.3
353.15 K, x2 = 0.226 | 12.2

CC(O)C(C)O (centres undefined) + CCCC[N+](C)(C)C.O=S(=O)([N-]S(=O)(=O)C(F)(F)F)C(F)(F)F
101 kPa
Conditions | viscosity [mPa·s]
323.15 K, x1 = 0.557 | 16.54
323.15 K, x1 = 0.6216 | 16.03
328.15 K, x1 = 0.557 | 13.6
333.15 K, x1 = 0.3137 | 15.23
333.15 K, x1 = 0.4515 | 13.1
333.15 K, x1 = 0.557 | 11.67
343.15 K, x1 = 1 | 6.7

C[N+](C)(C)CCO.NCC(=O)[O-] + O
100 kPa
Conditions | viscosity [mPa·s]
298.15 K, x1 = 1 | 501
303.15 K, x1 = 0.6966 | 202
308.15 K, x1 = 0.1 | 4.34
308.15 K, x1 = 0.3996 | 60.2
313.15 K, x1 = 0.3996 | 49
313.15 K, x1 = 0.5004 | 71.1
318.15 K, x1 = 0.1 | 3.35
318.15 K, x1 = 0.3 | 25.63
318.15 K, x1 = 0.3996 | 40.89
318.15 K, x1 = 0.5004 | 56
318.15 K, x1 = 1 | 154.5
